pKi: −log10 of the molar value. “And” between values parts separate entries of the source, which are not always exact repeats. Equal entries are not always repeated. Where two headings read alike, the source gives them in different places.
Assays:
[1] = molecular target: T1, human recombinant αSYN fibrils (Homo sapiens, UniProt P37840); assay: [3H]PiB competition binding assay on αSYN fibrils; conditions: for pKi: competition against 6 nM [3H]PiB, read-out: Ki (mean ± SEM)
Experimental: (§1) Concentrations of αSYN and Aβ1-42 fibrils were as described above.
Plates were incubated on a shaker (MaxQ 6000, Thermo Fisher Scientific Inc., Marietta, OH, USA) at 50 rpm for 2 hours at 37° C., covered by removable sealing tapes (PerkinElmer, Waltham, MA, USA). […] Data points were fitted using non-linear regression analysis in GraphPad Prism (GraphPad Software, Inc., Version 8.4.0, La Jolla, USA).

[2] = molecular target: αSYN pathology in PD human brain slices (Homo sapiens, UniProt P37840); assay: In vitro autoradiography on PD human brain slices (frontal cortex); assay type: binding; conditions: 10 nM tracer; NSB with 10 μM non-radioactive compound
Experimental: (§2) Post-mortem human brain slices (10 μm thickness) were obtained from and the subject cases were analyzed by the Neurobiobank München (NBM, Munich, Germany), where tissues were collected on the basis of written informed consent according to the guidelines of the ethics committee of the Ludwig-Maximilians-University Munich, Germany (#345-13). The use of brain tissue samples in this study was approved by the ethics committee of the Faculty of Medicine at the University of Tuebingen (Ethics approval number: 813/2018BO2). Table 1 summarizes the information of the subjects from which samples were obtained and used in the experiment.
For autoradiography, brain slices were thawed for one hour before pre-incubation in BSA buffer for 25 minutes at room temperature. To determine total binding (TB), brain slices were incubated with the tracer (10 nM [^18F]PFSB, 10 nM [^18F]MFSB). […]
Quantitative data analysis was performed by drawing four regions of interest (ROIs) in relevant areas of the slice and one ROI next to it for background subtraction (ImageJ 1.8.0_172, National Institute of Health, Bethesda, Maryland, USA) (Schneider, C. A. et al., NIH Image to ImageJ: 25 years of image analysis; Nat Methods 2012, 9 (7), 671-5). […] The SB disease/SB control ratio was calculated by dividing by the SB in diseased tissues with the respective SB in control tissues.

[3] = molecular target: αSYN pathology in MSA human brain slices (Homo sapiens, UniProt P37840); assay: In vitro autoradiography on MSA human brain slices (cerebellum); assay type: binding
Experimental: as §2
(§3) For autoradiography, brain slices were thawed for one hour before pre-incubation in BSA buffer for 25 minutes at room temperature. To determine total binding (TB), brain slices were incubated with the tracer (10 nM [^18F]PFSB, 10 nM [^18F]MFSB). Incubation of consecutive slices with the correspondent non-radioactive compounds (10 μM PFSB, […]) was performed to determine non-specific binding (NSB). The non-radioactive compounds were prepared by dissolving in DMSO to 10 mM, which yielded DMSO concentration of ≤0.1% in the final solution. Incubation was carried out for one hour at room temperature with subsequent washing in cold BSA buffer (three times for ten minutes) followed by three dipping in cold deionized water. After drying under UV lamps, brain slices were exposed to a storage phosphor screen (Molecular Dynamics, Caesarea, Israel) for 18 hours, which was then scanned in a phosphor imager (STORM 840, Molecular dynamics, Sunnyvale, CA, USA).
(§4) Quantitative data analysis was performed by drawing four regions of interest (ROIs) in relevant areas of the slice and one ROI next to it for background subtraction (ImageJ 1.8.0_172, National Institute of Health, Bethesda, Maryland, USA) (Schneider, C. A. et al., NIH Image to ImageJ: 25 years of image analysis; Nat Methods 2012, 9 (7), 671-5). Specific binding (SB) is obtained by subtracting NSB from TB. The SB disease/SB control ratio was calculated by dividing by the SB in diseased tissues with the respective SB in control tissues.

[4] = molecular target: T2, Aβ plaques in AD human brain slices (Homo sapiens, UniProt P05067); assay: In vitro autoradiography on AD human brain slices (frontal cortex); assay type: binding
T2 construct: mainly Abeta40/42 cut from APP) in post-mortem AD frontal cortex slices
T2 sequence (P05067 672-713 limits assumed): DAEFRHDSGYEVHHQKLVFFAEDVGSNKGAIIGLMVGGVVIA
Experimental: as §2, §3, §4

[5] = molecular target: T3, synthetic human Aβ1-42 fibrils (Homo sapiens, UniProt P05067); assay: [3H]PiB competition binding assay on Aβ fibrils; conditions: result in words; FIG. 4b, 6b
T3 construct: chain cut from APP
T3 sequence (P05067 672-713): as the sequence (P05067 672-713 limits assumed) above
Excerpt: The method for Aβ1-42 fibrils generation was adapted from Bagchi, D. P. et al., Binding of the radioligand SIL23 to alpha-synuclein fibrils in Parkinson disease brain tissue establishes feasibility and screening approaches for developing a Parkinson disease imaging agent; PLoS One 2013, 8 (2), e55031, and described in Kuebler, L. et al., [^11C]MODAG-001-towards a PET tracer targeting α-synuclein aggregates; European Journal of Nuclear Medicine and Molecular Imaging 2020, 48, 1759-1772. Synthetic lyophilized human Aβ1-42 peptide (5 mg) with >90% purity (EMC Microcollections, Tuebingen, Germany) was dissolved in DMSO (221.5 μL), followed by the addition of deionized water (4.1 mL) and 1 M Tris-HCl (111 μL, pH 7.6) to reach a final monomeric concentration of 250 μM. Aggregation was induced by incubation in Eppendorf Thermomixer at 37° C. with shaking at 800 rpm for 72 hours. […]
Plates were incubated on a shaker (MaxQ 6000, Thermo Fisher Scientific Inc., Marietta, OH, USA) at 50 rpm for 2 hours at 37° C., covered by removable sealing tapes (PerkinElmer, Waltham, MA, USA). Vacuum filtration and read-out were performed as disclosed in Kuebler, L. et al., [^11C]MODAG-001-towards a PET tracer targeting α-synuclein aggregates; European Journal of Nuclear Medicine and Molecular Imaging 2020, 48, 1759-1772. […]

[6] = molecular target: T1, human recombinant αSYN fibrils; assay: [3H]MODAG-001 competition binding assay on αSYN fibrils; conditions: for competition with [3H]MODAG-001: result in words
Experimental: as §1
Plates were incubated on a shaker (MaxQ 6000, Thermo Fisher Scientific Inc., Marietta, OH, USA) at 50 rpm for 2 hours at 37° C., covered by removable sealing tapes (PerkinElmer, Waltham, MA, USA). Vacuum filtration and read-out were performed as disclosed in Kuebler, L. et al., [^11C]MODAG-001-towards a PET tracer targeting α-synuclein aggregates; European Journal of Nuclear Medicine and Molecular Imaging 2020, 48, 1759-1772. […] Data points were fitted using non-linear regression analysis in GraphPad Prism (GraphPad Software, Inc., Version 8.4.0, La Jolla, USA).

[7] = methylated compounds, two data points
[8] = non-methylated compounds, two data points (three for 9a, 14a, 15a, 17a, 18a; single for 12a)
[9] = 10 nM tracer, NSB with 10 μM non-radioactive compound

C[n+]1c(C=Cc2ccc(N3CCOCC3)cc2)sc2ccccc21 [Compound 15b, 3-methyl-2-(4-morpholinostyryl)benzo[d]thiazol-3-ium Iodide]
pKi [1, 7]: < 6.40

CN(C)c1ccc(C=Cc2sc3ccccc3[n+]2C)cc1 [Compound 19b, 2-(4-(dimethylamino)styryl)-3-methylbenzo[d]thiazol-3-ium Iodide]
pKi [1, 7]: < 6.40

C[n+]1c(C=Cc2ccc(N3CCC(F)CC3)cc2)sc2ccccc21 [Compound 18b, 2-(4-(4-fluoropiperidin-1-yl)styryl)-3-methylbenzo[d]thiazol-3-ium Iodide]
pKi [1, 7]: < 6.40

Cc1cccc2nc(C=Cc3ccc(N4CCCCC4)cc3)sc12 [Compound 10a, 7-methyl-2-(4-(piperidin-1-yl)styryl)benzo[d]thiazole]
pKi [1, 8]: < 6.40

CN1CCN(c2ccc(C=Cc3sc4ccccc4[n+]3C)cc2)CC1 [RB2, 3-methyl-2-(4-(4-methylpiperazin-1-yl)styryl)benzo[d]thiazol-3-ium Iodide, reference compound]
pKi [1, 7]: < 6.40

COc1cccc2nc(C=Cc3ccc(N4CCCCC4)cc3)sc12 [Compound 11a, 7-methoxy-2-(4-(piperidin-1-yl)styryl)benzo[d]thiazole]
pKi [1, 8]: < 6.40

COc1cccc2sc(C=Cc3ccc(N4CCCCC4)cc3)nc12 [Compound 2a, 4-methoxy-2-(4-(piperidin-1-yl)styryl)benzo[d]thiazole]
pKi [1, 8]: < 6.40

[18F]c1ccc2nc(/C=C/c3ccc(N4CCCCC4)cc3)sc2c1 [[^18F]PFSB]
SB disease/SB control, PD/frontal cortex ctrl [2]: 1.51
SB disease/SB control, MSA1/cerebellum ctrl [3, 9]: 3.73
SB disease/SB control, MSA2/cerebellum ctrl [3, 9]: 4.15
specific binding ratio of MSA brain slices compared to the control ([3]; MSA patients, same brain area, 10 nM tracer): 3.94±0.30
selectivity towards αSYN over Aβ ([3]; autoradiography, result in words, FIG. 12): selectivity towards αSYN over Aβ
affinity to αSYN pathology ([3]; result in words, FIG. 12): displayed affinity to αSYN pathology
SB disease/SB control, AD/frontal cortex ctrl [4, 9]: 1.06 and 1.03
binding in AD brain regions with Aβ plaques / AD/frontal cortex SB ratio in words ([4]; result in words, FIG. 12): no increased binding

Fc1ccc2nc(C=CC=Cc3ccc(N4CCCC4)cc3)sc2c1 [Compound 44, 6-fluoro-2-(4-(4-(pyrrolidin-1-yl)phenyl)buta-1,3-dien-1-yl)benzo[d]thiazole]
competition with [3H]PiB / binding to Aβ fibrils [5]: the binding to Aβ remained low

C[n+]1c(-c2ccc(N3CCCCC3)cc2)sc2ccccc21 [Compound 13b, 3-methyl-2-(4-(piperidin-1-yl)phenyl)benzo[d]thiazol-3-ium]
pKi [1, 7]: < 6.40

C[n+]1c(C=Cc2ccc(N3CCCCC3)cc2)sc2cccc(F)c21 [Compound 3b, 4-fluoro-3-methyl-2-(4-(piperidin-1-yl)styryl)benzo[d]thiazol-3-ium 4-nitrobenzenesulfonate]
pKi [1, 7]: < 6.40

Fc1ccc2nc(C=Cc3ccc(N4CCCCC4)cc3)sc2c1 (mixture of isomers) [Compound 9a, 6-fluoro-2-(4-(piperidin-1-yl)styryl)benzo[d]thiazole]
competition with [3H]MODAG-001 [6]: moderate to good competition

C[n+]1c(C=Cc2ccc(N3CCSCC3)cc2)sc2ccccc21 [Compound 16b, 3-methyl-2-(4-thiomorpholinostyryl)benzo[d]thiazol-3-ium Iodide]
pKi [1, 7]: < 6.40

CN(C)c1ccc(C=Cc2nc3ccccc3s2)cc1 [Compound 19a, 4-(2-(benzo[d]thiazol-2-yl)vinyl)-N,N-dimethylaniline]
pKi [1, 8]: < 6.40

Fc1ccc2nc(C=CC=Cc3ccc(N4CCCCC4)cc3)sc2c1 [Compound 43, 6-fluoro-2-(4-(4-(piperidin-1-yl)phenyl)buta-1,3-dien-1-yl)benzo[d]thiazole]
competition with [3H]PiB / binding to Aβ fibrils [5]: the binding to Aβ remained low

Fc1ccc2nc(C=Cc3ccc(N4CCOCC4)cc3)sc2c1 [Compound 45, 4-(4-(2-(6-fluorobenzo[d]thiazol-2-yl)vinyl)phenyl)morpholine]
fold lower Ki of MFSB than PFSB ([6]; [3H]MODAG-001 competition, versus PFSB): 4.6 fold
competition with [3H]MODAG-001 [6]: moderate to good competition
improvement of affinity (Ki) of MFSB compared to PFSB ([1]; [3H]PiB competition, versus PFSB): 2.5 factor

C[n+]1c(C=Cc2ccc(N3CCCCC3)cc2)sc2c(F)cccc21 [Compound 12b, 7-fluoro-3-methyl-2-(4-(piperidin-1-yl)styryl)benzo[d]thiazol-3-ium Iodide]
pKi [1, 7]: < 6.40

C(=Cc1nc2ccccc2s1)c1ccc(N2CCOCC2)cc1 [Compound 15a, 4-(4-(2-(benzo[d]thiazol-2-yl)vinyl)phenyl)morpholine]
affinity relative to N-piperidine analog 20 ([1]; result in words): comparable affinity

Source: US20260327195A1, “2-STYRYLBENZOTHIAZOLE DERIVATIVES AS ALPHA-SYNUCLEIN BINDING COMPOUNDS” (Eberhard Karls Universität Tübingen Medizinische Fakultät, priority 2023, published 2026)
